Biological target: T1, Mm NEU3 (Mm NEU3-HA) (Mus musculus, UniProt Q9JMH7)
T1 construct: HA tag, pcDNAI, transiently expressed in COS7, total cell lysate
T1 sequence (Q9JMH7 1-418): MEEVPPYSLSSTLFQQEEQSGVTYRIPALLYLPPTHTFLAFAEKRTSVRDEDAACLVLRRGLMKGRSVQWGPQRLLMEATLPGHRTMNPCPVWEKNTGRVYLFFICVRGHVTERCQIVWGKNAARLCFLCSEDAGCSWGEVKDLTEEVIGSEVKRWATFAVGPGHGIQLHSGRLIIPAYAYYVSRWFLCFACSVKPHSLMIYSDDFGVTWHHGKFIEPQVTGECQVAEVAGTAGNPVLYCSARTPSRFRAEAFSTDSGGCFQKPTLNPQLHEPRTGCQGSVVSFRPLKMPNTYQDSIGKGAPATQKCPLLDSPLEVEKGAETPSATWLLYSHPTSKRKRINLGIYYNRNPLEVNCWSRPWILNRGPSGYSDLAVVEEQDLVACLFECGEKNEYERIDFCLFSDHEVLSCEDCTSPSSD
Assay: sialidase activity in transfected COS7 lysate
Type: biochemical
Conditions: positive control; pH range 2.5-5.5; 37 °C

SMILES: CC(=O)N[C@H]1[C@H]([C@H](O)[C@H](O)CO)O[C@@](Oc2ccc3c(C)cc(=O)oc3c2)(C(=O)O)C[C@@H]1O [4-MU-NeuAc]
- sialidase activity in transfected COS7 lysate: pcDNAI-Mm NEU3-HA transfected cells were used as control

Reference: article PMC3179935, “Gallus gallus NEU3 sialidase as model to study protein evolution mechanism based on rapid evolving loops” (BMC Biochemistry, 2011)
